Measurements published in patent US7179926B2, “Aryloxyalkylamine NK-1/SSRI inhibitors” (Bristol-Myers Squibb Company, priority 2004, dated 2007).

Legend:
[1] = target: T1, neurokinin-1 (NK-1) receptor (Homo sapiens, UniProt P25103); test: NK-1 Binding assay ([125I] Substance P competition, U373 cell membranes); settings: Bolton Hunter labeled [125I] Substance P, 30 min at 20° C.
T1 construct: endogenously expresses the neurokinin-1 (NK-1) receptor; endogenous in cells; host or cells: U373 human glioblastoma-astrocytoma cells (membranes)
Description: NK-1 Binding assay. U373 cells, a human glioblastoma-astrocytoma cell line that endogenously expresses the neurokinin-1 (NK-1) receptor, were grown in a monolayer culture at 37° C. in 5% CO2 and fed with Minimum Essential Medium (MEM) supplemented with 10% fetal bovine serum. Membranes were prepared as follows: Cells were washed twice with ice-cold phosphate-buffered saline (pH 7.4) and then incubated for 5–10 minutes with ice-cold 10 mM Tris buffer (pH 7.4) containing 5 mM EDTA. Cells were removed from plates, homogenized, and centrifuged at 32,000×g for 20 minutes. The resulting supernatant was discarded, and the pellet resuspended by homogenization in 50 mM Tris buffer (pH 7.4) containing 1 mM EDTA and centrifuged at 32,000×g for 20 minutes. The resulting supernatant was discarded, and the pellet resuspended by homogenization in NK-1 binding assay buffer (50 mM Tris-HCL (pH 7.4), 3 mM MnCl2, 200 μg/ml BSA, 5 μg/ml chymostatin, 40 μg/ml bacitracin and 4 μg/ml leupeptin).
On the day of an experiment the membrane preparation was thawed, homogenized and diluted with NK-1 binding assay buffer to the appropriate concentration. Competition binding assays were performed in 96 well plate format by incubating membranes (5–10 μg/well) with Bolton Hunter labeled [^125I] Substance P, at a concentration of […], and concentrations of drugs ranging from 10000 to 0.01 nM. Samples were incubated for 30 min at 20° C. then filtered through GF/B glass fiber filters (pretreated with 1% polyethyleneimine and 0.3% Triton X-100) using a Brandel cell harvester. The filters were then washed with 10 ml ice cold 50 mM Tris-HCL (pH 7.4) containing 3 mM MgCl2. Non-specific was defined in the presence of 2 μM L-733,060 (a non-peptide NK-1 antagonist). The amount of radioligand bound in the presence and absence of competitor was analyzed by plotting (−)log drug concentration versus the amount of radioligand specifically bound. The midpoint of the displacement curve (IC50, nM), signifies the potency. Ki values can be calculated using the method of Cheng and Prusoff (Cheng and Prusoff, Biochemical Pharmacology, Vol 22, pp. 3099–3108, Pergamon Press (1973)).

[2] = target: T2, human serotonin transporters (Homo sapiens, UniProt P31645); test: Serotonin transporter binding assay ([3H]-citalopram competition, HEK-hSERT cell membranes); settings: 1 nM [3H]-citalopram, 1 hr at 25° C., read-out: SERT IC50
T2 construct: expressed in transfected cells
Description: Serotonin transporter binding assay. HEK-293 cells that stably express human serotonin transporters (HEK-hSERT cells) were grown at 37° C. in 5% CO2 as a monolayer in medium consisting of EMEM supplemented with 10% fetal bovine serum and G418 sulfate (500 μg/ml). To prepare membranes for radioligand binding experiments, cells were rinsed twice with phosphate-buffered saline (138 mM NaCl, 4.1 mM KCl, 5.1 mM Na2PO4, 1.5 mM KH2PO4, 11.1 mM glucose, pH 7.4). Cells were transferred from plates to polypropylene tubes (16×100 mm), centrifuged at 1,200×g for 5 min and were frozen at −80° C. until assay. Following centrifugation, pellets were resuspended by homogenization in buffer consisting of 50 mM Tris (pH 7.7 at 25° C.), 120 mM NaCl and 5 mM KCl and then centrifuged at 32,000×g for 10 min. Following centrifugation, supernatants were discarded and pellets were resuspended in buffer consisting of 50 mM Tris (pH 7.4 at 25° C.), 150 mM NaCl and 5 mM KCl. Membrane homogenates (200 μl/plate) were incubated with 1 nM [^3H]-citalopram (specific activity=85 Ci/mmol) and increasing concentrations of test compounds for 1 hr at 25° C. in a total volume of 250 μl. The assay buffer consisted of 50 mM Tris (pH 7.4 at 25° C.), 120 mM NaCl and 5 mM KCl (pH 7.4 with conc. HCl). Plates were incubated for 1 hr at 25° C., then filtered through 0.5% PEI treated Whatman GF/B filters using a Brandel cell harvester. Filters were washed three times with 3 ml of ice-cold tris wash buffer. Non-specific binding was defined with 10 μM fluoxetine. Amount of radioligand bound in the presence and absence of competitor was analyzed by plotting (−)log drug concentration versus the amount of radioligand specifically bound. The midpoint of the displacement curve (IC50, nM), signifies the potency. Ki values can be calculated using the method of Cheng and Prusoff (Cheng and Prusoff, Biochemical Pharmacology, Vol 22, pp. 3099–3108, Pergamon Press (1973)).

T2 sequence (P31645 whole entry): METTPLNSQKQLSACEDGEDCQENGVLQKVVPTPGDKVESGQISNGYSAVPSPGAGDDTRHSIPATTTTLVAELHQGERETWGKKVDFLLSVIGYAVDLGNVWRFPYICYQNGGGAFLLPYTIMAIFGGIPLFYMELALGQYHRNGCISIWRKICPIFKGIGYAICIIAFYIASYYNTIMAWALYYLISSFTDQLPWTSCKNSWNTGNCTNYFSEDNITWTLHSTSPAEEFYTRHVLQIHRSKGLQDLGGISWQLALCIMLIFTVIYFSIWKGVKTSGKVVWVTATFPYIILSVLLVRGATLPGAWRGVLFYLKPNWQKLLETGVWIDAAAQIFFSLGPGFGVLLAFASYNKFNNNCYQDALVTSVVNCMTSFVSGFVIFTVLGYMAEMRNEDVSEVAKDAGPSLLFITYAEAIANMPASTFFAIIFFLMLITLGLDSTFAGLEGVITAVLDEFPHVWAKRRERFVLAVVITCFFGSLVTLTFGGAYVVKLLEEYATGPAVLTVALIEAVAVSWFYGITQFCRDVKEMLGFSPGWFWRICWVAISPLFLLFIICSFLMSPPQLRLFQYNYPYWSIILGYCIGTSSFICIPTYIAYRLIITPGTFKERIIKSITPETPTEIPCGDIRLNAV
T1 sequence (P25103 whole entry): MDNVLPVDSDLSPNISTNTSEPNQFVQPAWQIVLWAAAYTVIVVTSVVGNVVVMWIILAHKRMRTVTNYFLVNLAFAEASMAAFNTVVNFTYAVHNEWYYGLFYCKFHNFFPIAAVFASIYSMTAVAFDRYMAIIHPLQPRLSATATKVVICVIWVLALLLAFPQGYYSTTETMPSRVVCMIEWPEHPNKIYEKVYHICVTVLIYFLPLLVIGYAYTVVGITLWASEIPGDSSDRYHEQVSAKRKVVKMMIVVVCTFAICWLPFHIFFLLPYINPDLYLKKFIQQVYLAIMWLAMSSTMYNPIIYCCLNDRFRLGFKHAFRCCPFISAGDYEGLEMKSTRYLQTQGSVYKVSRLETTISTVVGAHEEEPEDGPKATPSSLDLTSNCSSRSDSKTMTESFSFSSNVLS

SMILES	IC50 [1] [µM]	IC50 [2] [µM]
NCCC(O)(COCc1ccc(C(F)(F)F)cc1)c1ccccc1 (centres unmarked) [Example 56, 1-(4-(trifluoromethyl)benzyloxy)-4-amino-2-phenylbutan-2-ol]	> 0.3	0.1 to 0.3
NCCC(O)(COCc1ccccc1F)c1ccccc1 (centres unmarked) [Example 57, 1-(2-fluorobenzyloxy)-4-amino-2-phenylbutan-2-ol]	> 0.3	> 0.3
NCCC(O)(COCc1cccc(F)c1)c1ccccc1 (centres unmarked) [Example 58, 1-(3-fluorobenzyloxy)-4-amino-2-phenylbutan-2-ol]	> 0.3	0.1 to 0.3
NCCC(O)(COCc1ccc(F)cc1)c1ccccc1 (centres unmarked) [Example 59, 1-(4-fluorobenzyloxy)-4-amino-2-phenylbutan-2-ol]	> 0.3	0.1 to 0.3
Cc1cccc(COCC(O)(CCN)c2ccccc2)c1 (centres unmarked) [Example 60, 1-(3-methylbenzyloxy)-4-amino-2-phenylbutan-2-ol]	> 0.3	0.001 to 0.1
NCCC(O)(COCc1cc(Cl)cc(Cl)c1)c1ccccc1 (centres unmarked) [Example 61, 1-(3,5-dichlorobenzyloxy)-4-amino-2-phenylbutan-2-ol]	0.001 to 0.1	0.001 to 0.1
COc1ccccc1COCC(O)(CCN)c1ccccc1 (centres unmarked) [Example 62, 1-(2-methoxybenzyloxy)-4-amino-2-phenylbutan-2-ol]	> 0.3	0.001 to 0.1
COc1cccc(COCC(O)(CCN)c2ccccc2)c1 (centres unmarked) [Example 63, 1-(3-methoxybenzyloxy)-4-amino-2-phenylbutan-2-ol]	> 0.3	0.001 to 0.1
NCCC(O)(COCc1cc(F)cc(F)c1)c1ccccc1 (centres unmarked) [Example 64, 1-(3,5-difluorobenzyloxy)-4-amino-2-phenylbutan-2-ol]	0.1 to 0.3	0.001 to 0.1
NCCC(O)(COCc1cccc(Cl)c1)c1ccccc1 (centres unmarked) [Example 65, 1-(3-chlorobenzyloxy)-4-amino-2-phenylbutan-2-ol]	> 0.3	0.001 to 0.1
NCCC(O)(COCc1ccc(Br)cc1)c1ccccc1 (centres unmarked) [Example 66, 1-(4-bromobenzyloxy)-4-amino-2-phenylbutan-2-ol]	> 0.3	0.1 to 0.3
Cc1ccccc1COCC(O)(CCN)c1ccccc1 (centres unmarked) [Example 67, 1-(2-methylbenzyloxy)-4-amino-2-phenylbutan-2-ol]	> 0.3	0.1 to 0.3
NCCC(O)(COCc1cc(Br)cc(Br)c1)c1ccccc1 (centres unmarked) [Example 68, 1-(3,5-dibromobenzyloxy)-4-amino-2-phenylbutan-2-ol]	0.001 to 0.1	0.001 to 0.1
NCCC(O)(COCc1cccc(OC(F)(F)F)c1)c1ccccc1 (centres unmarked) [Example 69, 1-(3-(trifluoromethoxy)benzyloxy)-4-amino-2-phenylbutan-2-ol]	> 0.3	0.001 to 0.1
NCCC(O)(COCc1ccc(Cl)cc1)c1ccccc1 (centres unmarked) [Example 70, 1-(4-chlorobenzyloxy)-4-amino-2-phenylbutan-2-ol]	> 0.3	0.001 to 0.1
NCCC(COCc1cc(C(F)(F)F)cc(C(F)(F)F)c1)c1ccccc1 (centres unmarked) [Example 71, 1-(3,5-bis(trifluoromethyl)benzyloxy)-4-amino-2-phenylbutane]	0.001 to 0.1	0.1 to 0.3
CNCCC(COCc1cc(C(F)(F)F)cc(C(F)(F)F)c1)c1ccccc1 (centres unmarked) [Example 72, 1-(3,5-bis(trifluoromethyl)benzyloxy)-4-methylamino-2-phenylbutane]	0.001 to 0.1	0.001 to 0.1
CN(C)CCC(COCc1cc(C(F)(F)F)cc(C(F)(F)F)c1)c1ccccc1 (centres unmarked) [Example 73, 1-(3,5-bis(trifluoromethyl)benzyloxy)-4-dimethylamino-2-phenylbutane]	0.001 to 0.1	0.001 to 0.1
CC(CCN)(COCc1cc(C(F)(F)F)cc(C(F)(F)F)c1)c1ccccc1 (centres unmarked) [Example 74, 1-(3,5-bis(trifluoromethyl)benzyloxy)-4-amino-2-methyl-2-phenylbutane]	0.001 to 0.1	0.001 to 0.1
CNCCC(C)(COCc1cc(C(F)(F)F)cc(C(F)(F)F)c1)c1ccccc1 (centres unmarked) [Example 75, 1-(3,5-bis(trifluoromethyl)benzyloxy)-4-methylamino-2-methyl-2-phenylbutane]	0.001 to 0.1	0.1 to 0.3
CN(C)CCC(C)(COCc1cc(C(F)(F)F)cc(C(F)(F)F)c1)c1ccccc1 (centres unmarked) [Example 76, 1-(3,5-bis(trifluoromethyl)benzyloxy)-4-dimethylamino-2-methyl-2-phenylbutane]	0.1 to 0.3	0.001 to 0.1
CC(CN)(COCc1cc(C(F)(F)F)cc(C(F)(F)F)c1)c1ccccc1 (centres unmarked) [Example 77, 1-(3,5-bis(trifluoromethyl)benzyloxy)-3-amino-2-methyl-2-phenylpropane]	0.1 to 0.3	0.1 to 0.3
CNCC(C)(COCc1cc(C(F)(F)F)cc(C(F)(F)F)c1)c1ccccc1 (centres unmarked) [Example 78, 1-(3,5-bis(trifluoromethyl)benzyloxy)-3-methylamino-2-methyl-2-phenylpropane]	0.1 to 0.3	0.1 to 0.3
CN(C)CC(C)(COCc1cc(C(F)(F)F)cc(C(F)(F)F)c1)c1ccccc1 (centres unmarked) [Example 79, 1-(3,5-bis(trifluoromethyl)benzyloxy)-3-dimethylamino-2-methyl-2-phenylpropane]	0.001 to 0.1	0.001 to 0.1
NCCC(O)(CSCc1cc(C(F)(F)F)cc(C(F)(F)F)c1)c1ccccc1 (centres unmarked) [Example 80, 1-(3,5-bis(trifluoromethyl)benzylthio)-4-amino-2-phenylbutane-2-ol]	0.1 to 0.3	0.001 to 0.1
